# In patent US20260317344A1, “EGFR INHIBITORS FOR TREATING DISEASE” (BLOSSOMHILL THERAPEUTICS, INC., priority 2023, published 2026):
# Like-named read-outs stand apart in the source and are kept apart here.
# Key:
# Format in all cases: cell-based
# [1] = target: T1, pEGFR, PC-9 cells (d746-750 EGFR) (Homo sapiens, UniProt P00533, DEL746-750); experiment: Cellular EGFR phosphorylation assay (LANCE Ultra TR-FRET) in PC-9 cells
# T1 construct: pEGFR (Tyr1068) TR-FRET
# In short: (§1)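 IC50 values come from TR-FRET detection of EGFR phosphorylated at Tyr1068 in whole-cell lysates. Compound exposure lasts 4 h at 37 °C across nine 3-fold concentrations, and the wildtype-amplified A431 line receives 40 ng/mL EGF during the last 10 minutes.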
# [2] = target: T2, pEGFR, NCI-H1975 cells (L858R/T790M EGFR) (Homo sapiens, UniProt P00533, L858R/T790M); experiment: Cellular EGFR phosphorylation assay (LANCE Ultra TR-FRET) in NCI-H1975 cells
# T2 construct: pEGFR (Tyr1068) TR-FRET
# T2 sequence (P00533 25-1210 T790M/L858R): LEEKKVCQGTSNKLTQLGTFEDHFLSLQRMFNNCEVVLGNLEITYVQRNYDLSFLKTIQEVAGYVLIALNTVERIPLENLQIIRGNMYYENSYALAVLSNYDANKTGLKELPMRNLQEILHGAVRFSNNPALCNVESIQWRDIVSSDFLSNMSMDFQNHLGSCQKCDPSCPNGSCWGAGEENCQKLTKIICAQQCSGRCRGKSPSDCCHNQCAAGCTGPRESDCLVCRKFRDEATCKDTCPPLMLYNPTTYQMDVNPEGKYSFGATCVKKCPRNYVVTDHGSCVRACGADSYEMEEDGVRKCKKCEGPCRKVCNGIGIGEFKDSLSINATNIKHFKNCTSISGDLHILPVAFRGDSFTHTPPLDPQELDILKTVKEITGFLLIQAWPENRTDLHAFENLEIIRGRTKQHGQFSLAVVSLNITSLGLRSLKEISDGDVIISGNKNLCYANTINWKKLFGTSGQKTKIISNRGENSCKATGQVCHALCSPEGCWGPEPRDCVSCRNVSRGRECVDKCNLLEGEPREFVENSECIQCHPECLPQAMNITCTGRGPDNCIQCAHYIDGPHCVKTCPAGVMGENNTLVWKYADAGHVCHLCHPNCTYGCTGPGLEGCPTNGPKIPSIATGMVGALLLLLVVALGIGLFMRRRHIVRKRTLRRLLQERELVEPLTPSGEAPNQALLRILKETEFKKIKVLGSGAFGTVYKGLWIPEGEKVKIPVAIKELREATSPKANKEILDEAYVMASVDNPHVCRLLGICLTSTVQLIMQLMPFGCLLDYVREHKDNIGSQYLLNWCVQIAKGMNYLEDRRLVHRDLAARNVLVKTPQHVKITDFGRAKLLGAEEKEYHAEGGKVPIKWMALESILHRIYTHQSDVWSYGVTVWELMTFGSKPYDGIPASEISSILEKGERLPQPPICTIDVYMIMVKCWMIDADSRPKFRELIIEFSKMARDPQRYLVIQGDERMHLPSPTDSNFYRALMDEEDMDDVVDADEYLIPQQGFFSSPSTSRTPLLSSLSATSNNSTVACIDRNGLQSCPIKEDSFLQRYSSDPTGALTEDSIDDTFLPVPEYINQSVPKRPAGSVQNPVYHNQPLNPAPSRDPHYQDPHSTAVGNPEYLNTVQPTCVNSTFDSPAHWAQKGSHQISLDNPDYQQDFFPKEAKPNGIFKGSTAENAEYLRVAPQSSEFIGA
# In short: as §1
# [3] = target: T3, pEGFR, A431 cells (wildtype EGFR) (Homo sapiens, UniProt P00533); experiment: Cellular EGFR phosphorylation assay (LANCE Ultra TR-FRET) in A431 cells
# T3 construct: pEGFR (Tyr1068) TR-FRET
# T3 sequence (P00533 25-1210): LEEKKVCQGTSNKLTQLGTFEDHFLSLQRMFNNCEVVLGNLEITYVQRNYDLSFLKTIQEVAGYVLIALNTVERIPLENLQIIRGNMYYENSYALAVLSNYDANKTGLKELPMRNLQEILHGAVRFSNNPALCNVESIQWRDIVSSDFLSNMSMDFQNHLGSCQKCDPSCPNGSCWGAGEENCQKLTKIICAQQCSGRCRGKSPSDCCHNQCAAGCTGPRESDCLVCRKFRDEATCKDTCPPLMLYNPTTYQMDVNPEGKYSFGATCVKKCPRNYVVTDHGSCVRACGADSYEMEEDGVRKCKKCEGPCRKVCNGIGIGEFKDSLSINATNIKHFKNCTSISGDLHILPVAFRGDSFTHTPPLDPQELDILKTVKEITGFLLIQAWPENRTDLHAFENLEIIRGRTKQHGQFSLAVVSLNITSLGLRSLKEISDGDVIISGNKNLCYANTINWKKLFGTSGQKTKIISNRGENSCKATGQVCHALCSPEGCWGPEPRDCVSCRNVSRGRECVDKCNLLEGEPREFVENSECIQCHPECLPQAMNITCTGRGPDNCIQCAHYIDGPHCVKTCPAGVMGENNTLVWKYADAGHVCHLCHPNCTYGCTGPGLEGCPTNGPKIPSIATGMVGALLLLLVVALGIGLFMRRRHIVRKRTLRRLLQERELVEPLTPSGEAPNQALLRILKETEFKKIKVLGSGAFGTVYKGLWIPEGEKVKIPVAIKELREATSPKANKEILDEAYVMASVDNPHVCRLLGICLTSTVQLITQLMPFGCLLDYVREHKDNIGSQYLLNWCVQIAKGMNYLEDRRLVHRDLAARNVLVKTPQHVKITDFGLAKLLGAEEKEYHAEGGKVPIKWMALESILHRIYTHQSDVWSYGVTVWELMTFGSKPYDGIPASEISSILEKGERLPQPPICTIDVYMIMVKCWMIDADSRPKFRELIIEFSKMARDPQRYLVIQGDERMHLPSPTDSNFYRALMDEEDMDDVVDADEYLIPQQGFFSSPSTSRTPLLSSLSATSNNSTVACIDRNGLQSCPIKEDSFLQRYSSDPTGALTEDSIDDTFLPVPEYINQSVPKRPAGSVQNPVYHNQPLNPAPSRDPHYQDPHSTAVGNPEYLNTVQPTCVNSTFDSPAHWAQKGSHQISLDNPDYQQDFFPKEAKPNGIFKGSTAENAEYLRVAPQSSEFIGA
# In short: as §1
# [4] = test system: PC-9 cells; experiment: 5-Day CellTiter Glo (CTG) cell proliferation assay, PC-9; conditions: Homo sapiens; PC-9 cells (d746-750 EGFR), 5-day CTG proliferation, 120 hours; read-out: PC-9 IC50
# In short: (§2)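 Proliferation of EGFR-driven NSCLC cells was scored as CellTiter-Glo 2.0 luminescence after a 5-day (120 h) incubation with compounds in 9 doses. IC50 values came from the dose-response curves.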
# [5] = test system: NCI-H1975 cells; experiment: 5-Day CellTiter Glo (CTG) cell proliferation assay, NCI-H1975; conditions: Homo sapiens; NCI-H1975 cells (L858R/T790M EGFR), 5-day CTG proliferation, 120 hours; read-out: H1975 IC50
# In short: as §2
# [6] = test system: HCC827 cells; experiment: 5-Day CellTiter Glo (CTG) cell proliferation assay, HCC827; conditions: Homo sapiens; HCC827 cells (d746-750 EGFR), 5-day CTG proliferation, 120 hours; read-out: HCC827 IC50
# In short: as §2
# [7] = test system: BaF3 cells with engineered EGFR L858R/T790M/C797S; experiment: 3-Day CellTiter Glo (CTG) cell proliferation assay, BaF3 EGFR L858R/T790M/C797S; conditions: Mus musculus, 3-day CTG proliferation, 72 hours
# In short: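 Growth inhibition in transgene-bearing BaF3 lines was scored after three days of compound treatment by CellTiter-Glo 2.0 ATP luminescence, yielding IC50 values.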
# [8] = test system: BaF3 cells with engineered EGFR L858R/C797S; experiment: 3-Day CellTiter Glo (CTG) cell proliferation assay, BaF3 EGFR L858R/C797S; conditions: Mus musculus, 3-day CTG proliferation, 72 hours
# Description: (§3) 3-DAY CellTiter Glo (CTG) Cell Proliferation Assays (BaF3 Cell Lines)
# (§4) Cell proliferation assays were carried out in BaF3 cells engineered with EGFR mutations. BaF3 cells with engineered EGFR L858R/T790M/C797S, EGFR L858R/C797S, or EGFR d746-750/T790M transgene, one thousand cells/50 μL per well were seeded in white 384-well plate, followed by treatment with indicated compounds in a 9-dose dilution series using TECAN d300e liquid dispenser. Cells were incubated with compounds for 72 hours at 37° C. and 5% CO2. Cell proliferation was measured using CellTiter-Gbo 2.0 luciferase-based ATP detection assay (Promega, Madison, WI) at 18 μL per well following the manufacturer's protocol. Plates were then read on a TECAN Sparks multimode microplate reader. Data was analyzed using GraphPad Prism 9 (GraphiPad Software, San Diego, CA) to obtain IC50 values.
# [9] = test system: BaF3 cells with engineered EGFR d746-750/T790M; experiment: 3-Day CellTiter Glo (CTG) cell proliferation assay, BaF3 EGFR d746-750/T790M; conditions: Mus musculus; BaF3 EGFR d746-750/T790M cells, 3-day CTG proliferation, 72 hours
# Description: as §3, §4
# [10] = 4 hours at 37° C., read-out: PC-9 pEGFR IC50
# [11] = 4 hours at 37° C., read-out: H1975 pEGFR IC50
# [12] = 4 hours at 37° C., 40 ng/mL EGF for the final 10 minutes, read-out: A431 pEGFR IC50
# T1 sequence (P00533 with tags, fused parts or gaps DEL746-750): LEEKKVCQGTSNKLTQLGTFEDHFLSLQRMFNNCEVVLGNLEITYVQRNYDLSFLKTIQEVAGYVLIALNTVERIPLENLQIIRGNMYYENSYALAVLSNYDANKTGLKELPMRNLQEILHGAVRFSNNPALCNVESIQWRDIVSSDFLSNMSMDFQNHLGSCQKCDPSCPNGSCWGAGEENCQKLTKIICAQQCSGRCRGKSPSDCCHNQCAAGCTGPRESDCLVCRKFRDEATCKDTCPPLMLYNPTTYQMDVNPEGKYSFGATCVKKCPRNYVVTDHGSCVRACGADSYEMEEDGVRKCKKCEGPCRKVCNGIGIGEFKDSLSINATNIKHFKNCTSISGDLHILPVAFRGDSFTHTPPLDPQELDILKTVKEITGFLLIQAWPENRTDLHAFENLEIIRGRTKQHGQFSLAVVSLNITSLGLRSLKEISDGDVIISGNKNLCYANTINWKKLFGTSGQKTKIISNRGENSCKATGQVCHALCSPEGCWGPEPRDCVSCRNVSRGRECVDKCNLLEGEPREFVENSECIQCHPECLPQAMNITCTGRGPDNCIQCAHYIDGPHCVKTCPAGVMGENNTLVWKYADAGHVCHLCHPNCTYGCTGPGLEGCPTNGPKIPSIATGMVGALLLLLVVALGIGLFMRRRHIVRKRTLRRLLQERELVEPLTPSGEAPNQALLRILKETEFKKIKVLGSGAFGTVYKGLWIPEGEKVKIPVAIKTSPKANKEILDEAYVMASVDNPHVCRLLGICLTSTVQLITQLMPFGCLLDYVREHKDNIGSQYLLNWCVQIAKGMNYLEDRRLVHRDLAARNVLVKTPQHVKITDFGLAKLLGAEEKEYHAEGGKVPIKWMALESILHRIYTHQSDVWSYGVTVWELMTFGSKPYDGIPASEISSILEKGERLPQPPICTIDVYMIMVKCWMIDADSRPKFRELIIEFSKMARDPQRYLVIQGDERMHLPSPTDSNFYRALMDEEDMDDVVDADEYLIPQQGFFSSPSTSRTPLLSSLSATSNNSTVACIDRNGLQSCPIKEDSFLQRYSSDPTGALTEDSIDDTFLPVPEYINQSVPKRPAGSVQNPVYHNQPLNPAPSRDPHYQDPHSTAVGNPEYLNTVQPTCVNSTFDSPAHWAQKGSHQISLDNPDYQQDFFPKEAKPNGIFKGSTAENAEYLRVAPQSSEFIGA
"IC50 [1, 10] [nM]","IC50 [2, 11] [nM]","IC50 [3, 12] [nM]",IC50 [4] [nM],IC50 [5] [nM],IC50 [6] [nM],IC50 [7] [nM],IC50 [8] [nM],IC50 [9] [nM],"IC50 ([1]; read-out: PC-9 pEGFR IC50, 4 hours at 37° C.) [nM]","IC50 ([2]; read-out: H1975 pEGFR IC50, 4 hours at 37° C.) [nM]","IC50 ([3]; read-out: A431 pEGFR IC50, 4 hours at 37° C., 40 ng/mL EGF for the final 10 minutes) [nM]",Compound
3.35,1.76,17.7,5.19,2.86,1.15,0.74,0.13,2.14,,,,"CCOc1nn([C@H](C)CO)c2c1/C=C/c1n[nH]c3c(C)nc(cc13)-c1c(C)nn(C)c1O[C@@H](C)CN(C)C2 [Ex. 95, (2R)-2-[(10S,17E)-16-ethoxy-6,8,10,12,20-pentamethyl-2,8,10,11,12,13-hexahydro-14H-5,3-(azenometheno)tripyrazolo[3,4-f:3′,4′-j:4″,3″-n][1,4]oxazacyclopentadecin-14-yl]propan-1-ol]"
2.91,1.79,3.52,5.53,2.65,0.9,1.17,0.24,1.17,,,,"Cc1nn(CCO)c2c1/C=C/c1n[nH]c3c(C)nc(cc13)-c1c(C)nn(C)c1O[C@@H](C)CN(C(C)C)C2 [Ex. 109, 2-[(10S,17E)-6,8,10,16,20-pentamethyl-12-(propan-2-yl)-2,8,10,11,12,13-hexahydro-14H-5,3-(azenometheno)tripyrazolo[3,4-f3′,4′-j:4″,3″-n][1,4]oxazacyclopentadecin-14-yl]ethan-1-ol]"
2.35,15,24.7,1.54,207,0.85,4.4,0.12,66.3,,,,"CCOc1nn([C@@H](C)CO)c2c1/C=C/c1n[nH]c3cnc(cc13)-c1c(CC)nn(C)c1O[C@@H](C)CN(C)C2 [Ex. 82, (2S)-2-[(10S,17E)-16-ethoxy-6-ethyl-8,10,12-trimethyl-2,8,10,11,12,13-hexahydro-14H-5,3-(azenometheno)tripyrazolo[3,4-f:3′,4′-j:4″,3″-n][1,4]oxazacyclopentadecin-14-yl]propan-1-ol]"
,,,3.52,1.76,0.71,0.93,0.09,1.23,2.31,1.55,17.8,"CCNc1nn([C@@H](C)CO)c2c1/C=C/c1n[nH]c3c(C)nc(cc13)-c1c(C)nn(C)c1O[C@@H](C)CN(C)C2 [Ex. 94, (2S)-2-[(10S,17E)-16-(ethylamino)-6,8,10,12,20-pentamethyl-2,8,10,11,12,13-hexahydro-14H-5,3-(azenometheno)tripyrazolo[3,4-f:3′,4′-j:4″,3″-n][1,4]oxazacyclopentadecin-14-yl]propan-1-ol]"
4.17,2.68,34.7,8.86,3.6,1.05,1.37,0.2,4.36,,,,"CNc1nn([C@@H](C)CO)c2c1/C=C/c1n[nH]c3c(C)nc(cc13)-c1c(C)nn(C)c1O[C@@H](C)CN(C)C2 [Ex. 101, (2S)-2-[(10S,17E)-6,8,10,12,20-pentamethyl-16-(methylamino)-2,8,10,11,12,13-hexahydro-14H-5,3-(azenometheno)tripyrazolo[3,4-f:3′,4′-j:4″,3″-n][1,4]oxazacyclopentadecin-14-yl]propan-1-ol]"
1.62,2.17,11,2.52,5.09,0.39,0.86,0.09,1.56,,,,"CCOc1nn([C@H](C)CO)c2c1/C=C/c1n[nH]c3cnc(cc13)-c1c(C)nn(C)c1O[C@@H](C)CN(C)C2 [Ex. 88, (2R)-2-[(10S,17E)-16-ethoxy-6,8,10,12-tetramethyl-2,8,10,11,12,13-hexahydro-14H-5,3-(azenometheno)tripyrazolo[3,4-f:3′,4′-j:4″,3″-n][1,4]oxazacyclopentadecin-14-yl]propan-1-ol]"
4.41,7.07,5.13,10.6,55.2,2.12,3.55,0.49,4,,,,"CCOc1nn(C[C@H](C)O)c2c1/C=C/c1n[nH]c3cnc(cc13)-c1c(C)nn(C)c1O[C@@H](C)CN(C1CC1)C2 [Ex. 107, (2S)-1-[(10S,17E)-12-cyclopropyl-16-ethoxy-6,8,10-trimethyl-2,8,10,11,12,13-hexahydro-14H-5,3-(azenometheno)tripyrazolo[3,4-f:3′,4′-j:4″,3″-n][1,4]oxazacyclopentadecin-14-yl]propan-2-ol]"
1.98,1.58,11.1,0.68,1.4,0.45,0.91,0.11,1.18,,,,"CCOc1nn(CCO)c2c1/C=C/c1n[nH]c3cnc(cc13)-c1c(C)nn(C)c1O[C@@H](C)CN(C1CC1)C2 [Ex. 113, 2-[(10S,17E)-12-cyclopropyl-16-ethoxy-6,8,10-trimethyl-2,8,10,11,12,13-hexahydro-14H-5,3-(azenometheno)tripyrazolo[3,4-f:3′,4′-j:4″,3″-n][1,4]oxazacyclopentadecin-14-yl]ethan-1-ol]"
3.56,5.67,22.2,4.87,27.1,1.66,1.84,0.42,3.72,,,,"CCOc1nn(CCO)c2c1/C=C/c1n[nH]c3cnc(cc13)-c1c(C)nn(C)c1OC[C@@H](C)N(C1CC1)C2 [Ex. 114, 2-[(11R,17E)-12-cyclopropyl-16-ethoxy-6,8,11-trimethyl-2,8,10,11,12,13-hexahydro-14H-5,3-(azenometheno)tripyrazolo[3,4-f:3′,4′-j:4″,3″-n][1,4]oxazacyclopentadecin-14-yl]ethan-1-ol]"
1.08,1.62,11,1.39,1.77,0.2,0.43,0.04,0.4,,,,"CCOc1nn([C@@H](C)CO)c2c1/C=C/c1n[nH]c3cnc(cc13)-c1c(C)nn(C)c1OC[C@@H](C)N(C)C2 [Ex. 97, (2S)-2-[(11R,17E)-16-ethoxy-6,8,11,12-tetramethyl-2,8,10,11,12,13-hexahydro-14H-5,3-(azenometheno)tripyrazolo[3,4-f:3′,4′-j:4″,3″-n][1,4]oxazacyclopentadecin-14-yl]propan-1-ol]"
2.05,3.54,19.6,1.98,2,0.51,1.65,0.13,1.8,,,,"CCNc1nn([C@@H](C)CO)c2c1/C=C/c1n[nH]c3cnc(cc13)-c1c(C)nn(C)c1O[C@@H](C)CN(C)C2 [Ex. 93, (2S)-2-[(10S,17E)-16-(ethylamino)-6,8,10,12-tetramethyl-2,8,10,11,12,13-hexahydro-14H-5,3-(azenometheno)tripyrazolo[3,4-f:3′,4′-j:4″,3″-n][1,4]oxazacyclopentadecin-14-yl]propan-1-ol]"
